≈ marks a conversion by molar mass, not a printed value. One block for each compound: values may come before it.
What was measured:
Plasmodium yoelii [1] = assay: Antimalarial activity as reduced parasitaemia at day 4 against Plasmodium yoelii N67 infected Swiss mice (Mus musculus) compared to chloroquine; format: functional, N-67; design: concentration or dose not given beside the values
Plasmodium yoelii [2] = assay: Antimalarial activity as mean survival time against Plasmodium yoelii N67 infected Swiss mice (Mus musculus); format: functional, N-67
Plasmodium falciparum [3] = assay: Antimalarial activity against Plasmodium falciparum NF54; details: NF-54
[4] = Inhibition of Plasmodium falciparum falcipain-2
Plasmodium berghei [5] = assay: Gametocytocidal activity as infected mosquitoes against Plasmodium berghei at 10 uM/kg; format: functional
Plasmodium berghei [6] = assay: Gametocytocidal activity as oocysts per mosquito against Plasmodium berghei; format: functional
[7] = Stability assessed as hydrolysis to metabolite in presence of 80% human plasma; format: ADME, cell-free
Plasmodium falciparum [8] = assay: Antimalarial activity against chloroquine-resistant Plasmodium falciparum W2; format: functional, organism-based
Plasmepsin II = Plasmepsin II (Plasmodium falciparum, UniProt P46925); assay: Inhibition of Plasmodium falciparum plasmepsin-2
Chain of Plasmepsin II (P46925 whole entry): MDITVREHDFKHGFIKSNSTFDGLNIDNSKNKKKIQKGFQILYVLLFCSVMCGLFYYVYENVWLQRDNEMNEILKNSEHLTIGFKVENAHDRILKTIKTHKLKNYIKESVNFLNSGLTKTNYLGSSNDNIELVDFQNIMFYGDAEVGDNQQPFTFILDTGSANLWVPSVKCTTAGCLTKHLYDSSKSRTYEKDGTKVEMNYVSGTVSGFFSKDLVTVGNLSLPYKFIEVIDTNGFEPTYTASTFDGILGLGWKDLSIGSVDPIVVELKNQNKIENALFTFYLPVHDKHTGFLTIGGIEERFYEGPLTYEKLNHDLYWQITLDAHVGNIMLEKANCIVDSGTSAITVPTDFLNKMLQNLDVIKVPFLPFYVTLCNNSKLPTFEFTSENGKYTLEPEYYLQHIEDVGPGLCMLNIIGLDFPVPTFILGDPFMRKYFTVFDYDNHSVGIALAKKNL

Plasmodium falciparum [9] = assay: microbe, parasite or virus in culture; details: D10
Description: Antimalarial activity against chloroquine-sensitive Plasmodium falciparum D10

Plasmodium falciparum [10] = assay: Antimalarial activity against Plasmodium falciparum FcB1R; details: read-out: ED50 (the source's name)
Plasmodium falciparum [11] = assay: Antimalarial activity against chloroquine-resistant Plasmodium falciparum K1; format: functional, organism-based
Plasmodium falciparum [12] = assay: Antimalarial activity against Plasmodium falciparum 3D7; format: functional, organism-based
Plasmodium falciparum [13] = assay: Antimalarial activity against chloroquine-resistant Plasmodium falciparum Dd2; format: functional, organism-based
Plasmodium falciparum [14] = assay: Antimalarial activity against chloroquine-resistant Plasmodium falciparum FcB1; format: functional, organism-based
Plasmodium falciparum [15] = assay: Antimalarial activity against Plasmodium falciparum THAI; format: functional, organism-based

SMILES: O=C1c2ccccc2SC(c2c(Cl)cccc2Cl)N1CCCNc1ccnc2cc(Cl)ccc12 (configuration not stated)
Activity (Plasmodium yoelii [1]): 23.5%
Survival (Plasmodium yoelii [2]): 13.8 days
IC50 (Plasmodium falciparum [3]): 14 nM
MIC (Plasmodium falciparum [3]): 0.28 µM (≈ 0.148 µg/mL)

SMILES: O=C1CCSC(c2ccc(Cl)cc2)N1CCNc1ccnc2cc(Cl)ccc12 (configuration not stated)
Activity (Plasmodium yoelii [1]): 81%
Survival (Plasmodium yoelii [2]): 15.2 days
IC50 (Plasmodium falciparum [3]): 13 nM
MIC (Plasmodium falciparum [3]): 0.26 µM (≈ 0.112 µg/mL)

SMILES: O=C1CSC(c2c(Cl)cccc2Cl)N1CCNc1ccnc2cc(Cl)ccc12 (configuration not stated)
Activity (Plasmodium yoelii [1]): 76.08%
Survival (Plasmodium yoelii [2]): 14.6 days
IC50 (Plasmodium falciparum [3]): 39 nM
MIC (Plasmodium falciparum [3]): 0.55 µM (≈ 0.249 µg/mL)

IC50 [4]: 720 nM
SMILES: O=C(NCCNc1ccnc2cc(Cl)ccc12)N/N=C/c1ccc(O)c(CN2CCCC2)c1O

IC50 [4]: 3160 nM
SMILES: O=C(NCCNc1ccnc2cc(Cl)ccc12)N/N=C/c1ccc(O)c(CN2CCN(c3ccnc4cc(Cl)ccc34)CC2)c1O

IC50 [4]: > 20000 nM
SMILES: NC(=O)N/N=C/c1ccc(O)c(CN2CCN(c3ccnc4cc(Cl)ccc34)CC2)c1O

IC50 [4]: 2250 nM
SMILES: NC(=S)N/N=C/c1ccc(O)c(CN2CCN(c3ccnc4cc(Cl)ccc34)CC2)c1O

IC50 [4]: 2600 nM
SMILES: CCN(CC)Cc1c(O)ccc(/C=N/NC(=O)NCCNc2ccnc3cc(Cl)ccc23)c1O

Stability [7]: Stable
SMILES: COc1cc(NC(C)CCCN2C(=O)CNC23CCCCC3)c2ncccc2c1 (configuration not stated)
Activity (Plasmodium berghei [5]): 25%
Activity (Plasmodium berghei [6]): 7.4

SMILES: O=C1c2ccccc2SC(c2ccc(Cl)cc2)N1CCCNc1ccnc2cc(Cl)ccc12 (configuration not stated)
Activity (Plasmodium yoelii [1]): 40.08%
Survival (Plasmodium yoelii [2]): 10.6 days
IC50 (Plasmodium falciparum [3]): 138 nM
MIC (Plasmodium falciparum [3]): 0.27 µM (≈ 0.134 µg/mL)

IC50 [4]: > 20000 nM
SMILES: CN1CCN(Cc2c(O)ccc(/C=N/NC(=O)NCCNc3ccnc4cc(Cl)ccc34)c2O)CC1

IC50 [4]: > 20000 nM
SMILES: O=C(NCCNc1ccnc2cc(Cl)ccc12)N/N=C/c1ccc(O)c(CN2CCOCC2)c1O

SMILES: COc1cc(NC(C)CCCN2C(=O)CNC2(C)C)c2ncccc2c1 (configuration not stated)
Activity (Plasmodium berghei [5]): 21%
Activity (Plasmodium berghei [6]): 6.1

IC50 [4]: 630 nM
SMILES: O=C(NCCNc1ccnc2cc(Cl)ccc12)N/N=C/c1ccc(O)c(CN2CCCCC2)c1O

SMILES: CCCCNC(=O)C[C@H](O)[C@H](CC(C)C)NC(=O)[C@@H](NC(=O)Cc1ccc2cc(C(=O)OCCCC(=O)N[C@H](C(=O)N[C@H](CCCCN)C(=O)NCCCC(C)Nc3cc(OC)cc4cccnc34)C(C)C)ccc2c1)[C@H](C)CC (some centres not stated)
IC50 (Plasmodium falciparum [8]): 1000 nM
IC50 (Plasmepsin II): 9.6 µM
IC50 (Plasmodium falciparum [9]): 3300 nM

SMILES: CCCCNC(=O)C[C@H](O)[C@H](CC(C)C)NC(=O)[C@@H](NC(=O)Cc1ccc(CC(=O)N[C@H](C(=O)N[C@H](CCCCN)C(=O)NCCCC(C)Nc2cc(OC)cc3cccnc23)C(C)C)cc1)[C@H](C)CC (some centres not stated)
IC50 (Plasmodium falciparum [8]): 4200 nM
IC50 (Plasmepsin II): 135 µM
IC50 (Plasmodium falciparum [9]): 5500 nM

EC50 (Plasmodium falciparum [10]): 23 nM
SMILES: O=C(CN1CCCCC1)Nc1cc(COC(=O)CCC2=CC(=O)c3ccccc3C2=O)cc(Nc2ccnc3ccc(Cl)cc23)c1

SMILES: CC(C)(C)C(=O)CN(CCCNc1ccnc2cc(Cl)ccc12)C(=O)c1cnccn1
IC50 (Plasmodium falciparum [11]): 2290 nM
IC50 (Plasmodium falciparum [8]): 1650 nM
IC50 (Plasmodium falciparum [9]): 1380 nM

Stability [7]: Stable
SMILES: COc1cc(NC(C)CCCN2C(=O)[C@@H](Cc3ccccc3)NC23CCCCCC3)c2ncccc2c1 (some centres not stated)
Activity (Plasmodium berghei [5]): 90%
Activity (Plasmodium berghei [6]): 78.9

SMILES: CC(C)(C)NC(=O)C1(C)CCC(=O)N1CCCCCCNc1ccnc2cc(Cl)ccc12 (configuration not stated)
IC50 (Plasmodium falciparum [8]): 180 nM

SMILES: CC(C)(C)C(=O)CN(CCNc1ccnc2cc(Cl)ccc12)C(=O)c1cnccn1
IC50 (Plasmodium falciparum [11]): 1130 nM
IC50 (Plasmodium falciparum [8]): 1190 nM
IC50 (Plasmodium falciparum [9]): 712 nM

SMILES: Clc1ccc2c(NCCCN(CCc3ccccc3)Cc3ncc[nH]3)ccnc2c1
IC50 (Plasmodium falciparum [12]): 50 nM
IC50 (Plasmodium falciparum [8]): 130 nM
IC50 (Plasmodium falciparum [13]): 150 nM

SMILES: O=C(CN1CCCCC1)Nc1cc(CN2CCOCC2)cc(Nc2ccnc3ccc(Cl)cc23)c1
IC50 (Plasmodium falciparum [11]): 12.4 nM
IC50 (Plasmodium falciparum [14]): 9.6 nM
IC50 (Plasmodium falciparum [15]): 12.8 nM

SMILES: O=C(CN(CCCNc1ccnc2cc(Cl)ccc12)C(=O)c1ccc(O)cc1O)C1CCCCC1
IC50 (Plasmodium falciparum [11]): 3830 nM
IC50 (Plasmodium falciparum [8]): 5940 nM
IC50 (Plasmodium falciparum [9]): 1670 nM

SMILES: CCCCN(CCCNc1ccnc2cc(Cl)ccc12)Cc1ccoc1
IC50 (Plasmodium falciparum [12]): 50 nM
IC50 (Plasmodium falciparum [8]): 70 nM
IC50 (Plasmodium falciparum [13]): 45 nM

SMILES: O=C(CN(CCNc1ccnc2cc(Cl)ccc12)C(=O)c1cnccn1)C1CCCCC1
IC50 (Plasmodium falciparum [11]): 1350 nM
IC50 (Plasmodium falciparum [8]): > 10000 nM
IC50 (Plasmodium falciparum [9]): 793 nM

SMILES: NC(=S)N/N=C1/C(=O)N(CCNc2ccnc3cc(Cl)ccc23)c2ccccc21
IC50 (Plasmodium falciparum [11]): 710 nM
IC50 (Plasmodium falciparum [8]): 240 nM
IC50 [4]: 14600 nM
IC50 (Plasmodium falciparum [9]): 320 nM

SMILES: COc1ccc(CNCc2cc(NC(=O)CN3CCCCC3)cc(Nc3ccnc4ccc(Cl)cc34)c2)cc1
IC50 (Plasmodium falciparum [14]): 4.4 nM

SMILES: O=C(CN1CCCCC1)Nc1cc(CN2CCN(c3ccccc3)CC2)cc(Nc2ccnc3ccc(Cl)cc23)c1
IC50 (Plasmodium falciparum [14]): 5.5 nM
